Reference: ChEMBL document CHEMBL1143680, “Alboatisins A-C, ent-atisene diterpenoids from Isodon albopilosus” (J Nat Prod, 2007)

Tests used:
Format in all cases: functional, cell-based
A549 = assay: Cytotoxicity against human A549 cells after 72 hrs by SRB assay; conditions: A549, 72 h
HT-29 = assay: Cytotoxicity against human HT29 cells after 72 hrs by SRB assay; conditions: HT-29, 72 h
K562 = assay: Cytotoxicity against human K562 cells after 72 hrs by SRB assay; conditions: K562, 72 h

SMILES | IC50 (A549) | IC50 (HT-29) | IC50 (K562)
C=C1C(=O)[C@]23C[C@@H](O)[C@H]1C[C@H]2[C@]1(C)CCC[C@](C)(CO)[C@H]1C[C@H]3O [ALBOATISIN C] | 12.5 µM | 20.6 µM | 28 µM
C=C1C(=O)[C@@]23[C@H](O)C[C@@H]4[C@@](C)(CO)CCC[C@@]4(C)[C@@H]2C[C@@H]1[C@H](O)[C@H]3O [ALBOATISINS A] | 10.5 µM | 15.6 µM | 24.6 µM
C=C1C(=O)[C@@]23[C@H](O)C[C@H]4[C@@](C)(CCC[C@]4(C)C=O)[C@@H]2C[C@@H]1[C@H](O)[C@H]3O [ALBOATISINS B] | 8.3 µM | 7.9 µM | 13.6 µM
